15 molecules from patent US4703055A, “Benzamides and therapeutic use thereof” (Societe d'Etudes Scientifiques et Industrielles de …, priority 1985, dated 1987) can be followed below.

Data set [1] in a line: in vivo. The following applies: mouse, male mice, intravenous, as base, read-out: LD50 in mg/kg (base) intravenously. As to the method: The compounds according to the invention were the subject of a toxicological study to determine the lethal doses (LD50) in male mice, the compounds being administered intravenously. Metoclopramide was employed as a standard. The compounds of […] were tested.
Table (I) sets out the values with respect to said (LD50) tests.

Data set [2] relates to stereotyped movements induced by apomorphine. Description: Antagonism of stereotyped movements induced by apomorphine in rats (central antidopaminergic effect). The format is in vivo. Here is the method:
Another pharmacological study was conducted to determine the central antidopaminergic effects of the compounds of the invention, by evaluating the power of their antagonistic effect in regard to the stereotyped movements induced by apomorphine in two different doses (1.25 mg/kg/IV and 0.5 mg/kg/SC) in rats. The tests were conducted according to conventional procedures.

Another data set is described as follows: Solubility of crystals. The format is physicochemical.
The conditions of data set [3]: in vivo, sc.
Data set [4] is described as follows: in vivo. As to conditions: sc.
[5] abbreviates: Rattus norvegicus, ip, I.P., at 64 mg/kg, read-out: inhibitor effect on stereotypies in regard to apomorphine, Intraperitoneal (I.P).
The mark [6] stands for this setting: Rattus norvegicus, ip, I.P., read-out: inhibitor effect on stereotypies in regard to apomorphine, Intraperitoneal (I.P).
Setting [7] is: I.P., at 64 mg/kg, result in words.

Structures can show the parent of a compound that is named as a salt. Where two headings read alike, the source gives them in different places.

Turning to `CCN1CCN=C1CNC(=O)c1cc(Cl)c(N)cc1OC` [Example 1, N-[(1-ETHYL 2-IMIDAZOLIN-2-YL)METHYL] 2-METHOXY 4-AMINO 5-CHLOROBENZAMIDE], the LD50 in the data set “in vivo [1]” was in the range of 27.1 to 27.2 mg/kg. The “Stereotypies in regard to apomorphine, Intraperitoneal (I.P)” value (from here on “Stereotypies in regard … (I.P)”) in data set [2] (I.P., at 50 mg/kg) is “inactive”. Besides, the “Stereotypies in regard to apomorphine, Subcutaneous (S.C.)” value (“Stereotypies in regard … (S.C.)” below) in data set [2] (S.C., at 200 mg/kg) was “inactive”. The solubility in chloroform entry in the data set “Solubility of crystals” (chloroform) is given as “highly soluble”. Moreover, in “Solubility of crystals” (dilute acetic acid), the “solubility in dilute acetic acid” value is “soluble”. The “Cataleptic Activity (Subcutaneous)” value in data set [3] (200 mg/kg) was “inactive”.

For the molecule `C=CCN1CCN=C1CNC(=O)c1cc(Cl)c(N)cc1OC` [Example 2, N-[(1-ALLYL 2-IMIDAZOLIN-2-YL)METHYL] 2-METHOXY 4-AMINO 5-CHLOROBENZAMIDE], in “in vivo [1]”, the LD50 worked out at 31.8 mg/kg. Further, in data set [3] (200 mg/kg), the “Cataleptic Activity (Subcutaneous)” value was “inactive”.

For `COc1cc(N)c(Cl)cc1C(=O)NCC1=NCCN1Cc1ccccc1` [Example 3, N-[(1-benzyl 2-imidazolin-2-yl)methyl] 2-methoxy 4-amino 5-chlorobenzamide Hydrochloride], the LD50 in “in vivo [1]” lay within 47.8 to 48.5 mg/kg. Moreover, in data set [2] (setting [5]), the inhibition in vivo at 64 mg/kg is 19%. Moreover, the “Stereotypies in regard … (S.C.)” value in data set [2] (S.C., at 200 mg/kg) was “inactive”. In addition, the “Cataleptic Activity (Subcutaneous)” value in data set [3] (200 mg/kg) is “inactive”.

For the molecule `COc1cc(N)c(Cl)cc1C(=O)NCC1=NCCN1CC1CC1` [Example 4, N-[(1-CYCLOPROPYLMETHYL 2-IMIDAZOLIN-2-YL)METHYL] 2-METHOXY 4-AMINO 5-CHLOROBENZAMIDE], the inhibition in vivo at 32 mg/kg in data set [2] (setting [6]) turned out to be 26%. Moreover, the “Stereotypies in regard … (S.C.)” value in data set [2] (S.C., at 100 mg/kg) is “inactive”. Besides, the “Cataleptic Activity (Subcutaneous)” value in data set [3] (200 mg/kg) is “inactive”.

On to `C=CCOc1cc(N)c(Cl)cc1C(=O)NCC1=NCCN1CC` [Example 5, N-[(1-ETHYL 2-IMIDAZOLIN-2-YL)METHYL] 2-ALLYLOXY 4-AMINO 5-CHLOROBENZAMIDE], for which the LD50 in the data set “in vivo [1]” lay in the range of 25.5 to 26.1 mg/kg. For the same molecule, the inhibition in vivo at 32 mg/kg in data set [2] (setting [6]) is 8%. For the same molecule, the “Stereotypies in regard … (S.C.)” value in data set [2] (S.C., at 200 mg/kg) was “inactive”. Moreover, in data set [3] (200 mg/kg), the “Cataleptic Activity (Subcutaneous)” value is “inactive”.

On to `CCN1CCN=C1CNC(=O)c1cc(Br)c(N)cc1OC` [Example 6, N-[(1-ETHYL 2-IMIDAZOLIN-2-YL)METHYL] 2-METHOXY 4-AMINO 5-BROMOBENZAMIDE], for which the inhibition in vivo at 32 mg/kg in data set [2] (setting [6]) was found to be 20%. For the same molecule, in data set [2] (S.C., at 200 mg/kg), the “Stereotypies in regard … (S.C.)” value is “inactive”. In addition, the “Cataleptic Activity (Subcutaneous)” value in data set [3] (100 mg/kg) was “inactive”.

`CCN1CCN=C1CN(C)C(=O)c1cc(Cl)c(N)cc1OC` [Example 7, N-METHYL N-[(1-ETHYL 2-IMIDAZOLIN-2-YL)METHYL] 2-METHOXY 4-AMINO 5-CHLOROBENZAMIDE METHANE SULPHONATE]: in the data set “in vivo [1]”, the LD50 was 23.4 to 24.4 mg/kg. Also, in data set [2] (setting [7]), the “Stereotypies in regard … (I.P)” value is “inactive”. In addition, in data set [2] (S.C., at 200 mg/kg), the “Stereotypies in regard … (S.C.)” value was “inactive”. Also, the “Cataleptic Activity (Subcutaneous)” value in data set [3] (200 mg/kg) is “inactive”.

As for `COc1cc(N)c(Cl)cc1C(=O)NCC1=NCCN1C` [Example 8, N-[(1-METHYL 2-IMIDAZOLIN-2-YL)METHYL]2-METHOXY 4-AMINO 5-CHLOROBENZAMIDE HYDROCHLORIDE], in data set [2] (setting [5]), the inhibition in vivo at 64 mg/kg was 8%. The “Stereotypies in regard … (S.C.)” value in data set [2] (S.C., at 200 mg/kg) is “inactive”. Besides, the “Cataleptic Activity (Subcutaneous)” value in data set [3] (200 mg/kg) is “inactive”.

Consider `CCN1CC(C)N=C1CNC(=O)c1cc(Cl)c(N)cc1OC` (stereo not drawn) [Example 9, N-[(1-ETHYL 4-METHYL 2-IMIDAZOLIN-2-YL)METHYL] 2-METHOXY 4-AMINO 5-CHLOROBENZAMIDE], for which, in data set [2] (setting [5]), the inhibition in vivo at 64 mg/kg was 5%. Moreover, the “Stereotypies in regard … (S.C.)” value in data set [2] (S.C., at 100 mg/kg) was “inactive”. Also, the “Cataleptic Activity (Subcutaneous)” value in data set [3] (200 mg/kg) was “inactive”.

In the case of `COc1cc(N)c(Cl)cc1C(=O)NCC1=NCCN1` [Example 10, N-[(2-IMIDAZOLIN-2-YL)METHYL] 2-METHOXY 4-AMINO 5-CHLOROBENZAMIDE NITRATE], in the data set “in vivo [1]”, the LD50 fell in the range of 38.4 to 41.9 mg/kg. For the same molecule, the inhibition in vivo at 64 mg/kg in data set [2] (setting [5]) was determined as 4%. The “Stereotypies in regard … (S.C.)” value in data set [2] (S.C., at 100 mg/kg) is “inactive”. Besides, in data set [3] (200 mg/kg), the “Cataleptic Activity (Subcutaneous)” value was “inactive”.

On to `CCN1CC(C)(C)N=C1CNC(=O)c1cc(Cl)c(N)cc1OC` [Example 11, N-[(1-ETHYL 4-DIMETHYL 2-IMIDAZOLIN-2-YL)METHYL]2-METHOXY 4-AMINO 5-CHLOROBENZAMIDE], for which, in “in vivo [1]”, the LD50 was found to be 30.4 mg/kg. For the same molecule, the “Stereotypies in regard … (I.P)” value in data set [2] (setting [7]) is “inactive”. Moreover, the “Stereotypies in regard … (S.C.)” value in data set [2] (S.C., at 200 mg/kg) is “inactive”. For the same molecule, the “Cataleptic Activity (Subcutaneous)” value in data set [3] (200 mg/kg) is “inactive”.

As to `CCN1CCN=C1CNC(=O)c1cc(Cl)c(N)cc1O` [Example 12, N-[(1-ETHYL 2-IMIDAZOLIN-2-YL)METHYL]2-HYDROXY 4-AMINO 5-CHLOROBENZAMIDE HYDROCHLORIDE], in the data set “in vivo [1]”, the LD50 was 59.3 mg/kg. The inhibition in vivo at 54 mg/kg in data set [2] (Rattus norvegicus, ip, I.P., at 54 mg/kg, read-out: inhibitor effect on stereotypies in regard to apomorphine, Intraperitoneal (I.P)) was found to be 2%. Besides, the “Stereotypies in regard … (S.C.)” value in data set [2] (S.C., at 200 mg/kg) is “inactive”. Besides, the “Cataleptic Activity (Subcutaneous)” value in data set [3] (200 mg/kg) is “inactive”.

With `COc1cc(N)c(Cl)cc1C(=O)NCC1=NCCN1CC1=CCCCC1` [Example 13, N-[1-CYCLOHEXEN-1-YL-METHYL)2-(IMIDAZOLIN-2-YL)METHYL]2-METHOXY 4-AMINO 5-CHLOROBENZAMIDE], the LD50 in the data set “in vivo [1]” was 61.6 mg/kg. The inhibition in vivo at 64 mg/kg in data set [2] (setting [5]) was 18%. For the same molecule, the “Stereotypies in regard … (S.C.)” value in data set [2] (S.C., at 200 mg/kg) is “inactive”. The “Cataleptic Activity (Subcutaneous)” value in data set [3] (200 mg/kg) was “inactive”.

Turning to `CCN1CCN=C1C(C)NC(=O)c1cc(Cl)c(N)cc1OC` (stereo not drawn) [Example 14, N-[1-(ethyl 2-imidazolin-2-yl)ethyl]2-methoxy 4-amino 5-chlorobenzamide], in “in vivo [1]”, the LD50 stood at 14.6 mg/kg. The “Stereotypies in regard … (I.P)” value in data set [2] (I.P., at 40 mg/kg) was “inactive”. In addition, in data set [2] (S.C., at 80 mg/kg), the “Stereotypies in regard … (S.C.)” value was “inactive”. For the same molecule, the “Cataleptic Activity (Subcutaneous)” value in data set [3] (80 mg/kg) was “inactive”.

In the case of `CCN(CC)CCNC(=O)c1cc(Cl)c(N)cc1OC` [METOCLOPRAMIDE, Metoclopramide, reference compound], in “in vivo [1]”, the LD50 was determined as 37.9 mg/kg. Besides, the ED50 in data set [2] (Rattus norvegicus, ip, I.P., read-out: ID50, stereotypies in regard to apomorphine, Intraperitoneal (I.P)) lay within 2 to 2.6 mg/kg; in data set [2] (Rattus norvegicus, sc, S.C., read-out: ID50, stereotypies in regard to apomorphine, Subcutaneous (S.C.)), 15 to 15.2 mg/kg. Besides, in data set [2] (same conditions), the “antagonism of apomorphine stereotypies (in words)” value is “marked stereotypy inhibitor capacity”. The molecule further registered a TD50 in “in vivo [4]” of 30 to 38 mg/kg.
